Experimental data: EP0590919A1, “Therapeutic agents for parkinson's disease” (KYOWA HAKKO KOGYO CO., LTD., priority 1992, dated 1994)
Like-named read-outs stand apart in the source and are kept apart here.

How the values were obtained:
dd-strain male mice = assay: Acute toxicity test (minimum lethal dose, oral); assay type: in vivo; details: oral administration, three mice per group, mortality seven days after administration
Protocol: Test compounds were orally administered to groups of dd-strain male mice weighing 20 ± 1 g, each group consisting of three mice. Seven days after the administration, minimum lethal dose (MLD) of each compound was determined by observing the mortality.

A₂ receptor = molecular target: T1, A₂ receptor (Rattus norvegicus, UniProt P30543); assay: Adenosine A₂ receptor binding test (³H-NECA binding); details: for inhibition at 100 µM / inhibition at 10 µM / inhibition at 1 µM / inhibition at 0.1 µM: read-out: Inhibition (%) A₂ Receptor; for Ratio (A₁/A₂): ratio of Ki values A₁/A₂
T1 construct: from tissue; host or cells: rat corpus striatum membrane preparation
T1 sequence (P30543 whole entry): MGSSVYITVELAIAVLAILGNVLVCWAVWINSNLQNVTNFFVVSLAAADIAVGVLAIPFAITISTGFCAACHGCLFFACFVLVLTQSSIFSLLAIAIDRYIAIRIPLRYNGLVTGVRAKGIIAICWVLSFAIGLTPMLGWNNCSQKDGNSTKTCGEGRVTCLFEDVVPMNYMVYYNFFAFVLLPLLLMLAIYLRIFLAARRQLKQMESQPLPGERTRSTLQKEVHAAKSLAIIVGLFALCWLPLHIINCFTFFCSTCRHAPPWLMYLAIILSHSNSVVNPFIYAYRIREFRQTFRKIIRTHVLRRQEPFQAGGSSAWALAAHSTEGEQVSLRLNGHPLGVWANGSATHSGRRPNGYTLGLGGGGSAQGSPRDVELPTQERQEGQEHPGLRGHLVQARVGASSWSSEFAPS
Protocol: The similar procedure as in the above-described adenosine A₁ receptor binding test was repeated using rat corpus striatum to obtain the final precipitate of the tissue thereof. The precipitate was suspended in 50 mM Tris HCl buffer containing 10 mM magnesium chloride and 0.02 unit/mg tissue of adenosine deaminase (manufactured by Sigma Co.) to give a tissue concentration of 5 mg (wet weight)/ml.
The mixture solution was allowed to stand at 25°C for 120 minutes and then treated in the same manner as in the adenosine A₁ receptor binding test to determine the radioactivity bound to the A₂ receptors.
The inhibition rate of the test compound against the binding of A₂ receptor (³H-NECA binding) was calculated by the following equation: [formula] [Notes] • 1.

A₁ receptor = molecular target: T2, A₁ receptor (Cavia porcellus, UniProt P47745); assay: Adenosine A₁ receptor binding test (³H-CHA binding); design: species or system guinea pig; details: for inhibition at 100 µM: 10⁻⁴M; for inhibition at 100 µM / inhibition at 10 µM: guinea pig cerebrum; for inhibition at 10 µM: 10⁻⁵M; for Ki: Cheng-Prusoff's equation
T2 construct: from tissue; host or cells: guinea pig cerebrum membrane preparation
T2 sequence (P47745 1-326): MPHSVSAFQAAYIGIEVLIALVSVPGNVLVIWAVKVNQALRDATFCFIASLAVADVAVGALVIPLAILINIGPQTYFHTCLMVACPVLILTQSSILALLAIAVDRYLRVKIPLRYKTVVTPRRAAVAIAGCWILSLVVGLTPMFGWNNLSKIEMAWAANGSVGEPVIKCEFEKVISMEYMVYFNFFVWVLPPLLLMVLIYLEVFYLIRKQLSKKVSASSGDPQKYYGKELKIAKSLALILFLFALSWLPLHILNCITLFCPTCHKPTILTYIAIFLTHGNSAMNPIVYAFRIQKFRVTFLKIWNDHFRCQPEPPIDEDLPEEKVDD
Protocol: Cerebrum of a guinea pig was suspended in ice-cooled 50 mM Tris hydroxymethyl aminomethane hydrochloride (Tris HCl) buffer (pH 7.7) by using Polytron homogenizer (manufactured by […] Co.). […] The suspension was centrifuged under the same conditions, and the final precipitate was suspended once again in 50 mM Tris HCl buffer to give a tissue concentration of 100 mg (wet weight)/ml. The tissue suspension was incubated at 37°C for 30 minutes in the presence of 0.02 unit/mg tissue of adenosine deaminase (manufactured by Sigma Co.). The tissue suspension was then centrifuged (50,000 x g, 10 minutes), and 50 mM Tris HCl buffer was added to the precipitate to adjust the concentration of tissue to 10 mg (wet weight)/ml. […] The mixture solution was allowed to stand at 25°C for 90 minutes and then rapidly filtered by suction through a glass fiber filter (GF/C manufactured by Whatman Co.). […] The radioactivity on the filter was determined with a liquid scintillation counter (manufactured by Packard Instrument Co.). […] The inhibition constant (Ki value) shown in the table was calculated by the Cheng-Prusoff's equation.

[1] = tested on: Haloperidol-Induced Catalepsy; assay: Effect on haloperidol-induced catalepsy; assay type: in vivo, mice; details: for Number of the Animals Showing Remission: of five mice, catalepsy score not more than 4 points; for Number of the Animals Showing Remission / Remission Rate (%) / Total Score: 10 mg/kg orally; for Remission Rate (%): rate of decrease in total score based on control group; for Total Score: total catalepsy score of five mice (25 points at the full), haloperidol 1.0 mg/kg i.p.; for ED50: Mus musculus, 1 h, ten mice at each dose, effective = catalepsy score 3 or less, Probit analysis, oral, read-out: ED₅₀
Protocol: Haloperidol (Janssen Pharmaceutica) suspended in 0.3% CMC was intraperitoneally administered to each mouse at a dose of 1.0 mg/kg. Test compounds were suspended in 0.3% CMC or in injectable distilled water (Otsuka Pharmaceutical Co., Ltd.) containing Tween 80. L-DOPA (Kyowa Hakko Kogyo Co., Ltd.) and benserazide hydrochloride (Kyowa Hakko Kogyo Co., Ltd.) were suspended in 0.3% CMC. One hour after the haloperidol administration, the test compound suspensions and the control suspension [injectable distilled water (Otsuka Pharmaceutical Co., Ltd.) containing Tween 80] containing no test compound were orally administered to separate groups of the mice (0.1 ml per 10 g of body weight). One hour after the administration of the test compound, the forelimbs of each mouse and subsequently the hindlimbs of the same mouse were placed on a 4.5 cm-high, 1.0 cm-wide bar and catalepsy was estimated. […] The catalepsy score and the standard of judgment are shown below. […] The number of the animals showing remission against catalepsy is the number of the mice for which the catalepsy score was not more than 4 points. […] The ED₅₀ values were calculated by Probit analysis.

Row | Compound | MLD (dd-strain male mice) [mg/kg] | inhibition at 100 µM (A₂ receptor; 10⁻⁴M, ³H-NECA binding, rat corpus striatum) [%] | inhibition at 10 µM (A₂ receptor; 10⁻⁵M, ³H-NECA binding, rat corpus striatum) [%] | inhibition at 1 µM (A₂ receptor; 10⁻⁶M, ³H-NECA binding, rat corpus striatum) [%] | inhibition at 0.1 µM (A₂ receptor; 10⁻⁷M, ³H-NECA binding, rat corpus striatum) [%] | inhibition at 100 µM (A₁ receptor) [%] | inhibition at 10 µM (A₁ receptor) [%] | Ki (A₁ receptor) [nM] | inhibition at 0.1 µM (A₂ receptor) [%] | inhibition at 1 µM (A₂ receptor) [%] | inhibition at 10 µM (A₂ receptor) [%] | inhibition at 100 µM (A₂ receptor) [%] | Ki (A₂ receptor; ³H-NECA binding) [nM] | Ratio (A₁/A₂) (A₂ receptor) | Number of the Animals Showing Remission [1] | Remission Rate (%) [1] [%] | Total Score [1] | ED50 [1] [mg/kg]
1 | Cn1c(=O)c2[nH]c(/C=C/c3ccc4c(c3)OCO4)nc2n(C)c1=O [Compound 23, (E)-8-(3,4-Methylenedioxystyryl)theophylline] | > 300 | 81 | 90 | 60 | 38 | 38 | 32 | > 100000 |  |  |  |  |  |  |  |  |  | 
2 | CCn1c(=O)c2[nH]c(/C=C/c3ccc4c(c3)OCO4)nc2n(CC)c1=O [Compound 15, (E)-1,3-Diethyl-8-(3,4-methylenedioxystyryl)xanthine] | > 300 |  |  |  |  | 35 | 25 | > 100000 | 53 | 64 | 70 | 70 | 15 |  |  |  |  | 
3 | COc1ccc(/C=C/c2nc3c(c(=O)n(C)c(=O)n3C)n2C)c(C)c1C [Compound 22, (E)-8-(4-Methoxy-2,3-dimethylstyryl)caffeine] | > 100 |  |  |  |  | 1 | 1 | > 100000 | 78 | 85 | 78 | 81 | 3 | > 33,000 | 3 | 20 | 20 | 
4 | CCn1c(=O)c2c(nc(/C=C/c3cccc(OC)c3OC)n2C)n(CC)c1=O [Compound 4, (E)-8-(2,3-Dimethoxystyryl)-1,3-diethyl-7-methylxanthine] | > 300 |  |  |  |  | 70 | 55 |  | 57 | 84 | 88 | 90 | 33 |  |  |  |  | 
5 | COc1ccc(/C=C/c2nc3c([nH]2)c(=O)n(C)c(=O)n3C)c(C)c1C [Compound 21, (E)-8-(4-Methoxy-2,3-dimethylstyryl)theophylline] | > 100 |  |  |  |  | 40 | 36 | > 100000 | 56 | 68 | 83 | 79 | 22 |  | 4 | 24 | 19 | 
6 | CCn1c(=O)c2[nH]c(/C=C/c3ccc4c(c3)OCCO4)nc2n(CC)c1=O [Compound 17, (E)-8-[2-(1,4-Benzodioxan-6-yl)vinyl]-1,3-diethylxanthine] | > 100 |  |  |  |  | 31 | 23 | > 100000 | 70 | 69 | 80 | 80 | 6.3 | > 16,000 |  |  |  | 
7 | CCn1c(=O)c2[nH]c(/C=C/c3ccc(OC)c(C)c3OC)nc2n(CC)c1=O [Compound 13, (E)-8-(2,4-Dimethoxy-3-methylstyryl)-1,3-diethylxanthine] | > 300 |  |  |  |  | 71 | 59 |  | 77 | 84 | 88 | 95 | 9.5 |  |  |  |  | 
8 | CCn1c(=O)c2[nH]c(/C=C/c3ccc(OC)c(C)c3C)nc2n(CC)c1=O [Compound 9, (E)-1,3-Diethyl-8-(4-methoxy-2,3-dimethylstyryl)xanthine] | > 300 |  |  |  |  | 26 | 14 | > 100000 | 79 | 84 | 73 | 86 | 3.1 | > 32,000 |  |  |  | 
9 | Cn1c(=O)c2c(nc(/C=C/c3ccc4c(c3)OCO4)n2C)n(C)c1=O [Compound 24, (E)-8-(3,4-Methylenedioxystyryl)caffeine] | > 300 |  |  |  |  | -25 | -4 | > 100000 | 62 | 57 | 75 | 85 | 26 | > 3,800 |  |  |  | 
10 | CCn1c(=O)c2c(nc(/C=C/c3ccc4c(c3)OCO4)n2C)n(CC)c1=O [Compound 16, (E)-1,3-Diethyl-7-methyl-8-(3,4-methylenedioxystyryl)xanthine] | > 300 |  |  |  |  | 72 | 53 |  | 80 | 96 | 88 | 93 | 6.1 |  | 5 | 84 | 4 | 0.76
11 | CCn1c(=O)c2[nH]c(/C=C/c3ccc(OC)c(OC)c3OC)nc2n(CC)c1=O [Compound 7, (E)-1,3-Diethyl-8-(2,3,4-trimethoxystyryl)xanthine] | > 300 |  |  |  |  | 49 | 34 | > 10000 | 65 | 88 | 75 | 83 | 15 | > 670 |  |  |  | 
12 | CCn1c(=O)c2[nH]c(/C=C/c3ccc(OC)c(OC)c3)nc2n(CC)c1=O [Compound 1, (E)-8-(3,4-Dimethoxystyryl)-1,3-diethylxanthine] | > 300 |  |  |  |  | 86 | 84 |  | 53 | 86 | 98 | 100 | 23 |  |  |  |  | 
13 | CCn1c(=O)c2c(nc(/C=C/c3ccc4c(c3)OCCO4)n2C)n(CC)c1=O [Compound 18, (E)-8-[2-(1,4-Benzodioxan-6-yl)vinyl]-1,3-diethyl-7-methylxanthine] | > 300 |  |  |  |  | 66 | 56 |  | 84 | 90 | 104 | 98 | 1.5 |  | 5 | 84 | 4 | 1.9
14 | COc1ccc(/C=C/c2nc3c([nH]2)c(=O)n(C)c(=O)n3C)c(OC)c1OC [Compound 19, (E)-8-(2,3,4-Trimethoxystyryl)theophylline] | > 300 |  |  |  |  | 31 | 10 | > 100000 | 65 | 87 | 92 | 91 | 310 | > 320 |  |  |  | 
